Here are results for 1 molecule from ChEMBL document CHEMBL3745672, “Novel compounds reducing IRS-1 serine phosphorylation for treatment of diabetes” (Bioorg Med Chem Lett, 2016).

The test system of one experiment is HEK293. The experiment in a line: Cytotoxicity against HEK293 after 24 hrs by CellTiter-Glo luminescent cell viability assay. The settings on record: Homo sapiens, HEK293, 24 h. It counts as cell-based. For orientation: In ATP-based viability assays light output follows the ATP content of the culture.
The target of experiment [1] is T1, Mitogen-activated protein kinase 8 (Homo sapiens, UniProt P45983). Kind of experiment: Inhibition of JNK1 (unknown origin).
T1 sequence (P45983 whole entry): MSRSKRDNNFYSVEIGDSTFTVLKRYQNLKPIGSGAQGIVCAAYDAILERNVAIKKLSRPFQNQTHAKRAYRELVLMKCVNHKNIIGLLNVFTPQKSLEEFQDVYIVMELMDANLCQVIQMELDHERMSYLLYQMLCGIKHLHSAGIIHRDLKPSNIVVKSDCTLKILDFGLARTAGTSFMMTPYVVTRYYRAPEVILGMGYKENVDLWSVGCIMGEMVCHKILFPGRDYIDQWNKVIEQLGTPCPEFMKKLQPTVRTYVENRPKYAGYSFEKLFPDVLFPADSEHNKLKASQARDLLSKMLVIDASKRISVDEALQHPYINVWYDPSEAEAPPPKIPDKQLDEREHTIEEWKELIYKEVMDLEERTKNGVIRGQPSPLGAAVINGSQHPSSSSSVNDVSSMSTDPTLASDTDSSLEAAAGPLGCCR
In experiment [2] the target is T1, Mitogen-activated protein kinase 8. Kind of experiment: Inhibition of JNK1 (unknown origin) expressed in HEK293 cells assessed as anisomycin-induced IRS-1(Ser307) phosphorylation at 10 uM incubated for 30 mins by Western blot analysis relative to anisomycin. It counts as cell-based. Also on record: scale not given: the % may be the effect or the level left. (A western blot detects proteins with antibodies after separation by electrophoresis.)

Experiment [3] shares this target. Kind of experiment: Inhibition of JNK1 (unknown origin) expressed in HEK293 cells assessed as anisomycin-induced c-Jun phosphorylation at 10 uM incubated for 30 mins by Western blot analysis relative to anisomycin. It is filed as cell-based. Also on record: scale not given: the % may be the effect or the level left.
The target is the same in experiment [4]. Kind of experiment: Inhibition of JNK1 (unknown origin) expressed in HEK293 cells assessed as anisomycin-induced JNK phosphorylation at 10 uM incubated for 30 mins by Western blot analysis relative to anisomycin. It is filed as cell-based. Also noted: scale not given: the % may be the effect or the level left.
The target in experiment [5] is Mitogen-activated protein kinase 8 (Rattus norvegicus) (UniProt P49185). The experiment in a line: Inhibition of albumin-conjugated palmitate-induced JNK1/2 phosphorylation assessed as JNK phosphorylation level in rat RINm5F cells incubated for 8 hrs. It is filed as cell-based.
Mitogen-activated protein kinase 8 (Rattus norvegicus), sequence (P49185 whole entry): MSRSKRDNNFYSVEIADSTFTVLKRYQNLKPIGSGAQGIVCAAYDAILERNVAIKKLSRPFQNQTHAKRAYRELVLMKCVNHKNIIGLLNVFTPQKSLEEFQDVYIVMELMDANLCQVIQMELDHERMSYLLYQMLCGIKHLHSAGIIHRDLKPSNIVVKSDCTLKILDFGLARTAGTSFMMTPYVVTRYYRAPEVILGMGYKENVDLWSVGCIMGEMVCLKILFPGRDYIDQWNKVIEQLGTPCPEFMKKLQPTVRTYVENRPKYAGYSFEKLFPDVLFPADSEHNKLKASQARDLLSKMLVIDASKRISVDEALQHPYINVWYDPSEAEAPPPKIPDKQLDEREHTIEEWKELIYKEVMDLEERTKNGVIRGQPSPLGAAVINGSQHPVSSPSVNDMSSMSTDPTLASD
For experiment [6] the target is unchanged. Kind of experiment: Inhibition of JNK1 phosphorylation in rat RINm5F cells assessed as suppression of albumin-conjugated palmitate-induced IRS-1 Ser307 phosphorylation incubated for 8 hrs. It counts as cell-based. Also noted: concentration or dose not given beside the values. The settings on record: concentration not given here.

Calls of active or inactive are those of the source. The rule behind the calls is not given here.

For the molecule `Cn1c(=O)c(Oc2ccc(F)cc2F)cc2cnc(NCCCNS(C)(=O)=O)nc21`, the IC50 was over 30 µM in the experiment with HEK293 and 2.77 µM in experiment [1]. The Activity in experiment [2] was found to be 0%; in experiment [3], 73.5%; in experiment [4], 52.9%. The inhibition result in experiment [5] was “inactive”. Moreover, the inhibition in experiment [6] worked out at 87%.

What is called IC50 is the concentration at which inhibition is half-maximal. Broadly, the inhibition is the relative decrease from the control value, in per cent.
